Like-named read-outs stand apart in the source and are kept apart here.
Assays:
[1] = molecular target: T1, FNO from M. smithii (Methanobrevibacter smithii, UniProt A5UJ76); assay: SPR optical biosensor binding to immobilized FNO; settings: for kass / kdiss / kon / koff: PBS pH 7.4; for kon: read-out: kass; for koff: read-out: kdiss
Experimental: FNO was covalently immobilized on a carboxylate surface according to the protocol described in the Materials and Methods section. The change in the signal related to immobilization of the enzyme (ΔR ≅ 1,000 arcsec) corresponded to the achievement of a partial Langmuir monolayer for a protein of 120 kDa (2 ng/mm^2). The affinities of FNO for the ten compounds of interest were derived from the fit of raw data (representative sensorgrams are shown in Fig. 8; full panel is provided in Supplemental Information) to a mono-exponential model.
FNO from M. smithii (isolated as described in the Supplementary Information) was covalently coupled to the carboxylate surface of the sensor via EDC/NHS chemistry. Upon successful immobilization of FNO, unreacted carboxyl groups were blocked with ethanolamine 1 M pH 8.5, and the surface was eventually equilibrated with PBS. Independent additions of each molecule at different concentrations (β-D-glucose pentacetate 1.25–62.5 µM; mangiferin 3.125–37.5 µM; baicalin 1.25–25 µM; frangulin A 30–480 nM; ononin 29–465 nM; 5z-caffeoylquinic acid […]; ZINC35442308 0.30–4.92 µM; ZINC248099510 0.31–4.93 µM; ZINC2120951 0.32–5.1 µM; ZINC9271779 0.32–5.2 µM) to surface-blocked FNO were performed, each time monitoring the association kinetics until equilibrium. […] The affinities between surface-blocked FNO and soluble ligands were derived from the fit of raw data to single exponential model.

[2] = molecular target: T1, FNO from M. smithii; assay: Fluorometric FNO activity inhibition assay (F420 reduction with NADPH); type: biochemical
Experimental: According to the fluorometric assay of FNO activity, we observed an evident decrease in F420 reduction rates upon 15 min preincubation of FNO with increasing levels of the ten representative compounds of interest (the superimposition of representative residual activity plots obtained with β-D-glucose pentaacetate, mangiferin and baicalin are shown in Fig. 11; the full panel is provided in Supplemental Information).
FNO catalyses the reduction of NADP^+ with F420H2 via hydride transfer, and the reverse reaction, i.e. the reduction of F420 with NADPH. Here, the spectrofluorometric assay of FNO activity was based on monitoring the decrease in F420 emission at 470 nm upon excitation at 420 nm. Briefly, FNO (4 nM) was incubated with 0.5 mM F420 (purified from T. roseum as described in the Supplementary Information) and 0.5 mM NADPH (this concentration was selected on the basis of Km values in other methanogenic organisms[42]) at 37 °C in the presence or in the absence of increasing concentrations of the compounds of interest in 50 mM sodium citrate, pH 6.0. […] The residual activity ( a ) was expressed as the ratio of the initial velocities of the product formation in the presence ( V0,i ) and in the absence ( V0 ) of a given inhibitor concentration [Ii]. Raw data were processed as described elsewhere.

[3] = system: FNO; assay: Competitive binding test with NADP+ on biosensor; parameters: species or system Methanobrevibacter smithii
Experimental: A competitive binding test between NADP^+ and three out of the ten compounds (with high, moderate and low affinity for FNO, respectively) was performed to identify the binding site on FNO. The protocol involved the addition of a given concentration of baicalin, mangiferin and β-D-glucose pentaacetate to both free and NADP^+-saturated FNO.

[4] = molecular target: T1, FNO from M. smithii; assay: Molecular docking (AutoDock Vina) onto the homology model of FNO; settings: predicted
Source text: The 8,012 compounds selected from the Zbc database subset on molecular weight and clogP criteria were individually docked against the homology model of FNO from M. smithii using a Perl/Python pipeline on AutoDock Vina. The residues constituting the catalytic site of FNO were retrieved from the available literature[19] and explicitly defined as the grid centre for all ligands. The quantitative results of docking in terms of ΔGpred of each highest-score pose were collected into a single array (ΔGpred values ranged between − 4.9 and − 10.5 kcal/mol), which was then merged with the other structural descriptors (as PSA, H-donors and acceptors, cLogP, MW, Drug-likeness, Total surface area) available for each compound as summarized in Supplementary Information.
In the absence of a crystallographic structure for FNO from M. smithii, its three-dimensional structure was obtained by homology modelling, according to a previously reported procedure. […]
8,012 molecules selected from the Zbc subset of ZINC database[36] on molecular weight (350–450 amu) and hydrophobicity (cLogP < 3.85) criteria were iteratively docked to the homology model of FNO from M. smithii using AutoDock Vina[37]. […] Structural properties of each molecule and calculated binding affinities to FNO were globally analysed with DataWarrior[38].

[5] = system: FNO; assay: pH dependence of mangiferin-FNO binding (biosensor, linkage analysis); settings: 7.35 ± 0.33 in free enzyme
Experimental: In order to evaluate the effects of pH on the enzyme-ligand interaction, the binding of mangiferin (6.25–62.5 µM) to FNO was studied at different pH values in the range 6.0–8.0.
To evaluate the effects of pH on the enzyme-ligand interaction, the binding studies between mangiferin and FNO were replicated in a pH range between 6.4 and 8. The observed dependence of experimental KD from pH was analyzed according to a classic linkage relationship, protons being considered as heterotropic ligands for FNO[40]. This model involves a macromolecule (FNO) having a binding site for a ligand (mangiferin), and heterotropic binding sites able to accommodate a second ligand (H^+). These binding sites for protons present on the macromolecule can be grouped into two main sets: one with n binding sites with an ionization constant λ1, and one with m binding sites, each having an ionization constant equal to λ2. Therefore, the macromolecule can be described in three main ionization conditions: at low and at high pH values the fully protonated and the completely deprotonated forms prevail, respectively, whereas the intermediate form prevails at pH values equal to:1 pH=-logλ1-logλ2/2
Upon binding, the proton binding sites have their ionization constants shifted to λ3 and λ4, respectively. […]

[6] = experimental equilibrium constant, read-out: KD,E
[7] = 0.5 mM NADPH, 15 min preincubation, pH 6.0, 37 °C
[8] = 0.5 mM NADPH, 15 min preincubation, pH 6.0, 37 °C, read-out: Ki

T1 sequence (A5UJ76 entry or part of it): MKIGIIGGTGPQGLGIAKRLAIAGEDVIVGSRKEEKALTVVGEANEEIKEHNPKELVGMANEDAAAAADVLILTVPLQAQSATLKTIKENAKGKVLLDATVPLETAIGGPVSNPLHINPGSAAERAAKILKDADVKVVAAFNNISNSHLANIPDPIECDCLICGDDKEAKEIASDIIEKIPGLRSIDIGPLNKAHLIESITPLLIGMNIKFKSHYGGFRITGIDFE

SMILES	kass [1]	kdiss [1] [s⁻¹]	Kd [1, 6] [nM]	Ki [2, 7] [nM]	kon [1] [M⁻¹ s⁻¹]	koff [1] [s⁻¹]	Ki [2, 8] [nM]	biosensor response on NADP+-saturated FNO with respect to free enzyme [3]	other results
O=C(O)[C@H]1O[C@@H](Oc2cc3oc(-c4ccccc4)cc(=O)c3c(O)c2O)[C@H](O)[C@@H](O)[C@@H]1O [Baicalin]	–	–	–	–	3870	0.00025 ± 0.0001	–	significantly lower	Kd [1]: 65 ± 28 nM; Ki [2]: 45 ± 3 nM
O=c1c2cc(O)c(O)cc2oc2cc(O)c([C@@H]3O[C@H](CO)[C@@H](O)[C@H](O)[C@H]3O)c(O)c12 [Mangiferin]	–	–	400 ± 200	–	4820	0.002 ± 0.00097	650 ± 250	significantly lower	affinity for FNO with respect to ZINC05409528 [4]: nearly sevenfold lower affinity; pKa of histidine residue in FNO-mangiferin complex ([5]; pH 6.4 to 7.4): 5.26 ± 2.61; pKa of histidine residue in FNO-mangiferin complex ([5]; pH 7.4 to 8.0): 8.21 ± 0.12
COc1cc(OC)c2c(C)c(CC(=O)NCC(=O)NCC(=O)O)c(=O)oc2c1 [ZINC2120951]	2,423 ± 116 M^−1 s^−1	0.004 ± 0.001	1650 ± 410	970 ± 670	–	–	–	–	–

More lines, main results first:

kass [1]	kdiss [1] [s⁻¹]	Kd [1, 6] [nM]	Ki [2, 7] [nM]	kon [1] [M⁻¹ s⁻¹]	koff [1] [s⁻¹]	Ki [2, 8] [nM]	SMILES	biosensor response on NADP+-saturated FNO with respect to free enzyme [3]	other results
20,406 ± 2,270 M^−1 s^−1	0.005 ± 0.003	230 ± 160	210 ± 140	–	–	–	O=C(C=Cc1ccc(O)c(O)c1)OC1CC(O)(C(=O)O)CC(O)C1O (stereo not drawn) [5z-caffeoylquinic acid]	–	–
–	–	130 ± 50	–	35200	0.0045 ± 0.0014	49 ± 14	Cc1cc(O)c2c(c1)C(=O)c1cc(O[C@@H]3O[C@@H](C)[C@H](O)[C@@H](O)[C@H]3O)cc(O)c1C2=O [Frangulin A]	–	increase of inhibitory potency from β-D-glucose pentaacetate ([2]; 0.5 mM NADPH): approximately 100 fold
–	–	240 ± 110	–	29700	0.0072 ± 0.0033	205 ± 69	COc1ccc(-c2coc3cc(O[C@@H]4O[C@H](CO)[C@@H](O)[C@H](O)[C@H]4O)ccc3c2=O)cc1 [Ononin]	–	–
1,147 ± 267 M^−1 s^−1	0.0078 ± 0.0008	6800 ± 1700	1070 ± 340	–	–	–	Nc1ncnc2c1nc(NN=Cc1ccccc1)n2C1OC(CO)C(O)C1O (stereo not drawn) [ZINC9271779]	–	–
–	–	4850 ± 1850	–	2720	0.013 ± 0.005	3960 ± 200	CC(=O)OC[C@H]1O[C@@H](OC(C)=O)[C@H](OC(C)=O)[C@@H](OC(C)=O)[C@@H]1OC(C)=O [β-D-glucose pentaacetate]	significantly lower	–
